{"source": "patent US20240092846A1", "about": "“ENGINEERED CYCLOTIDES WITH POTENT BROAD ANTIMICROBIAL ACTIVITY” (priority 2022, published 2024)", "key": {"[1]": {"test": "Maximum tolerated dose (MTD) toxicology study", "excerpt": "Colistin was used as a control antibiotic.[28] […] For this purpose, Applicant employed a P. aeruginosa bacterial peritonitis model.[29] This animal model is a well-established acute infection model and is commonly utilized as a common preclinical screening method for new antibiotics.[30] Peritonitis in Balb/c mice (n=10) was established by intraperitoneal injection of 1.5×10^7 colony forming units (CFU) per mouse of P. aeruginosa (Schroeter) Migula (ATCC 27853).\nMaximum tolerated dose (MTD) toxicology Studies. The MTD was determined using two different endpoints: weight loss and clinical scoring. Clinical scores were evaluated through activity, appearance and body condition, similar to previously published literature (42). […] Any dose escalation that leads to moderate toxicity (clinical score of >2) was ceased and the dose prior served as the MTD. Mice were monitored every hour for 4 h after injection on the first day. After 24 h, mice were monitored twice daily for another two days until weight and clinical scores were returned to normal. Mice that met the criteria for moribund included a >20% weight loss and clinical score of >3 and were euthanized."}, "[2]": {"system": "human HEK293T and A549 epithelial cells", "method": "Cytotoxicity Assay. Cellular toxicities against human HEK293T and A549 epithelial cells were evaluated using Resazurin (Alamarblue™, Thermo Fisher Scientific, Waltham, MA). HEK293T cells were grown in minimum essential media (MEM), while A549 cells were grown in Dulbecco's […] (DMEM) supplemented with 10% fetal bovine serum (FBS) and maintained at 37° C. with 5% CO2. For each cell line, 10^4 cells were added to each well in a 96-well polystyrene plate and incubated for 16 h. Peptides were serially diluted two-fold at concentrations ranging from 100-0.2 μM in medium containing 10% FBS in polystyrene 96 well microtiter plates (Corning) for 16 h. After the incubation period, the cells were washed with PBS and treated with 200 μL/well DMEM media supplemented with 10% FBS containing the peptides at the indicated concentration for 22 h at 37° C. in 5% CO2 and then the medium was replaced with fresh growth medium containing resazurin and incubated for another 2 hours. Cell viability was quantified spectrophotometrically and cells incubated in the absence of peptides and containing 2% Triton X-100 (Sigma) served as controls."}, "[3]": {"system": "clinical isolates of methicillin-resistant S. aureus (MRSA)", "method": "(§1) Broad-spectrum antimicrobial activity was evaluated using the broth microdilution assays against two different pathogens from four different species of bacteria (P. aeruginosa, S. aureus, K. pneumoniae, and E. coli) to determine if the cyclotides retained its potent activity. Broth microdilution assays were utilized to determine the minimum inhibitory concentrations (MICs) of our cyclotides according to the CLSI (formerly NCCLS) guidelines modifications as described below (40). The assay utilized cation-adjusted Mueller-Hinton broth (CAMHB) (Becton, Dickinson and Company, Franklin Lakes, NJ) which was prepared according to the manufacturer's instructions. Cyclotide solutions were prepared as 10× solutions in 0.01% acetic acid. Cyclotide were serially diluted two-fold at concentrations ranging from 25-0.05 μM that contained CAMHB and 0.04% bovine serum albumin (BSA) in polypropylene microtiter plates (Corning, Corning, NY). All bacteria were incubated overnight at 37° C. at 200 rpm in CAMHB and bacterial inoculum was adjusted with additional CAMHB to 0.5 McFarland standard through spectrophotometry at 600 nm. […] Study strains included a total of 20 P. aeruginosa and 20 methicillin resistant S. aureus strains from patients with cystic fibrosis at the Keck Medical Center of the University of Southern California. […] Colistin sulphate (Sigma-Aldrich, St Louis, MO) was used as a reference antibiotic for P. aeruginosa and E. coli, while vancomycin hydrochloride and meropenem trihydrate were used as reference antibiotics for S. aureus and K. pneumoniae."}, "[4]": {"system": "clinical isolates of P. aeruginosa", "method": "as §1"}, "[5]": {"system": "E. coli", "conditions": "CAMHB", "method": "as §1"}, "[6]": {"test": "in vitro", "conditions": "37° C., LC-MS/MS", "method": "This was accomplished by incubating the corresponding peptides in human serum at 37° C. The quantitative analysis of undigested polypeptides was performed using liquid chromatography coupled with tandem mass spectrometry (LC-MS/MS). MCoTI-cyclotides present a very rigid structure,[24] which makes them extremely stable to proteolytic degradation.\nHuman serum stability. […]. Peptides were dissolved in water at 10 mg/mL concentration. 150 μg of peptides (15 μL) were mixed with 500 μL of human serum and incubated at 37° C. Samples (30 μL) were taken at various time intervals (0-120 h) and serum proteins were precipitated using 180 μL of acetonitrile containing 0.1% TFA. After centrifugation the pellet was dissolved in 8 M GdmCl and the supernatant was lyophilized and re-dissolved in 5% acetonitrile in water containing 0.1% formic acid. Both the supernatant and solubilized pellet fractions were analyzed by HPLC and LC-MS/MS. Each experiment was done in triplicate."}}, "note": "“And” between values parts separate entries of the source, which are not always exact repeats. Identical values can stand only once. “Also recorded” adds a separate entry of the source. Like-named read-outs stand apart in the source and are kept apart here.", "data": [{"smiles": "CC[C@H](C)[C@@H]1NC(=O)[C@@H]2CSSC[C@@H]3NC(=O)[C@H](C(C)C)NC(=O)CNC(=O)CNC(=O)[C@H](CCCNC(=N)N)NC(=O)[C@H](CCCNC(=N)N)NC(=O)CNC(=O)[C@H](C(C)C)NC(=O)[C@@H]4CSSC[C@H](NC(=O)[C@H](CC(C)C)NC(=O)[C@H](CCCNC(=N)N)NC(=O)CNC(=O)CNC(=O)[C@H](CO)NC(=O)CNC(=O)[C@H](CO)NC(=O)CNC(=O)[C@@H]5CSSC[C@H](NC(=O)[C@H](CC(=O)O)NC(=O)[C@H](CO)NC(=O)[C@H](CC(=O)O)NC(=O)[C@H](CCCNC(=N)N)NC(=O)[C@H](CCCNC(=N)N)NC(=O)[C@H](CSSC[C@H](NC1=O)C(=O)N[C@@H](CCCNC(=N)N)C(=O)NCC(=O)N[C@@H](CC(N)=O)C(=O)NCC(=O)N[C@@H](Cc1ccc(O)cc1)C(=O)N5)NC(=O)[C@H](CCCNC(=N)N)NC(=O)[C@H](CCC(N)=O)NC(=O)[C@H](CC(C)C)NC(=O)[C@H]([C@@H](C)CC)NC(=O)[C@H](CCCCN)NC(=O)[C@@H]1CCCN1C3=O)C(=O)N1CCC[C@H]1C(=O)NCC(=O)N[C@@H](C)C(=O)N2)C(=O)N[C@@H](Cc1ccc(O)cc1)C(=O)N[C@H]1CSSC[C@H](NC(=O)[C@H](Cc2ccccc2)NC(=O)[C@H](CCCNC(=N)N)NC(=O)[C@H](CCCNC(=N)N)NC(=O)[C@H](CCCNC(=N)N)NC1=O)C(=O)N[C@@H](C(C)C)C(=O)N4", "note": "[MCo-PG2]", "values": [{"measurement": "MTD at 3 days", "setting": "[1]; Balb/c, mouse, in vivo, ip", "result": 25, "unit": "mg/kg"}, {"measurement": "times less toxic than PG-1 in mice", "setting": "[1]; in vivo toxicity studies", "result": "approximately 4"}, {"measurement": "cytotoxicity relative to PG-1", "setting": "[2]", "result": "about three times less toxic than PG-1; also recorded: about three times less cytotoxic than PG-1"}, {"measurement": "S. aureus MIC50", "setting": "[3]; MRSA clinical isolates, n=20", "result": "6.25 µM and 6.3 µM"}, {"measurement": "S. aureus MIC90", "setting": "[3]; MRSA clinical isolates, n=20", "result": 12.5, "unit": "µM"}, {"measurement": "S. aureus (SA) MIC", "setting": "[3]; SA strain 766", "result": 6.25, "unit": "µM"}, {"measurement": "S. aureus (SA) MIC", "setting": "[3]; SA strain 4084-1", "result": 12.5, "unit": "µM"}, {"measurement": "S. aureus (SA) MIC", "setting": "[3]; SA strain 4094", "result": 12.5, "unit": "µM"}, {"measurement": "S. aureus (SA) MIC", "setting": "[3]; SA strain 6151-1", "result": 12.5, "unit": "µM"}, {"measurement": "S. aureus (SA) MIC", "setting": "[3]; SA strain 10337-1", "result": 6.25, "unit": "µM"}, {"measurement": "S. aureus (SA) MIC", "setting": "[3]; SA strain 10630-1", "result": 6.25, "unit": "µM"}, {"measurement": "S. aureus (SA) MIC", "setting": "[3]; SA strain 20021-1", "result": 6.25, "unit": "µM"}, {"measurement": "S. aureus (SA) MIC", "setting": "[3]; SA strain 20457-1", "result": 12.5, "unit": "µM"}, {"measurement": "S. aureus (SA) MIC", "setting": "[3]; SA strain 28283", "result": 6.25, "unit": "µM"}, {"measurement": "S. aureus (SA) MIC", "setting": "[3]; SA strain 28310", "result": 6.25, "unit": "µM"}, {"measurement": "S. aureus (SA) MIC", "setting": "[3]; SA strain 28355", "result": 6.25, "unit": "µM"}, {"measurement": "S. aureus (SA) MIC", "setting": "[3]; SA strain 30138-2", "result": 3.125, "unit": "µM"}, {"measurement": "S. aureus (SA) MIC", "setting": "[3]; SA strain 30493-1", "result": 6.25, "unit": "µM"}, {"measurement": "S. aureus (SA) MIC", "setting": "[3]; SA strain 32120-1", "result": 6.25, "unit": "µM"}, {"measurement": "S. aureus (SA) MIC", "setting": "[3]; SA strain 38878-2", "result": 3.125, "unit": "µM"}, {"measurement": "S. aureus (SA) MIC", "setting": "[3]; SA strain 87066", "result": 12.5, "unit": "µM"}, {"measurement": "S. aureus (SA) MIC", "setting": "[3]; SA strain 87112", "result": 12.5, "unit": "µM"}, {"measurement": "S. aureus (SA) MIC", "setting": "[3]; SA strain 87180", "result": 6.25, "unit": "µM"}, {"measurement": "S. aureus (SA) MIC", "setting": "[3]; SA strain 88,531", "result": 12.5, "unit": "µM"}, {"measurement": "S. aureus (SA) MIC", "setting": "[3]; SA strain 902674", "result": 12.5, "unit": "µM"}, {"measurement": "P. aeruginosa (PA) MIC", "setting": "[4]; PA strain 95302", "result": 1.57, "unit": "µM"}, {"measurement": "P. aeruginosa (PA) MIC", "setting": "[4]; PA strain 119133", "result": 3.125, "unit": "µM"}, {"measurement": "P. aeruginosa (PA) MIC", "setting": "[4]; PA strain 167482", "result": 0.4, "unit": "µM"}, {"measurement": "P. aeruginosa (PA) MIC", "setting": "[4]; PA strain 200174", "result": 0.4, "unit": "µM"}, {"measurement": "P. aeruginosa (PA) MIC", "setting": "[4]; PA strain 219686", "result": 3.125, "unit": "µM"}, {"measurement": "P. aeruginosa (PA) MIC", "setting": "[4]; PA strain 254831", "result": 1.5, "unit": "µM"}, {"measurement": "P. aeruginosa (PA) MIC", "setting": "[4]; PA strain 262309", "result": 1.5, "unit": "µM"}, {"measurement": "P. aeruginosa (PA) MIC", "setting": "[4]; PA strain 298473", "result": 0.78, "unit": "µM"}, {"measurement": "P. aeruginosa (PA) MIC", "setting": "[4]; PA strain 466035", "result": 0.4, "unit": "µM"}, {"measurement": "P. aeruginosa (PA) MIC", "setting": "[4]; PA strain 486442", "result": 0.78, "unit": "µM"}, {"measurement": "P. aeruginosa (PA) MIC", "setting": "[4]; PA strain 618154", "result": 0.78, "unit": "µM"}, {"measurement": "P. aeruginosa (PA) MIC", "setting": "[4]; PA strain 678449", "result": 3.125, "unit": "µM"}, {"measurement": "P. aeruginosa (PA) MIC", "setting": "[4]; PA strain 774248", "result": 12.5, "unit": "µM"}, {"measurement": "P. aeruginosa (PA) MIC", "setting": "[4]; PA strain 815159", "result": 0.78, "unit": "µM"}, {"measurement": "P. aeruginosa (PA) MIC", "setting": "[4]; PA strain 844265", "result": 0.78, "unit": "µM"}, {"measurement": "P. aeruginosa (PA) MIC", "setting": "[4]; PA strain 857950", "result": 6.25, "unit": "µM"}, {"measurement": "P. aeruginosa (PA) MIC", "setting": "[4]; PA strain 864684", "result": 3.125, "unit": "µM"}, {"measurement": "P. aeruginosa (PA) MIC", "setting": "[4]; PA strain 894496", "result": 0.78, "unit": "µM"}, {"measurement": "P. aeruginosa (PA) MIC", "setting": "[4]; PA strain 894925", "result": 3.125, "unit": "µM"}, {"measurement": "P. aeruginosa (PA) MIC", "setting": "[4]; PA strain 900719", "result": 3.125, "unit": "µM"}, {"measurement": "MIC", "setting": "[5]; E. coli DS377", "result": 0.8, "unit": "µM"}, {"measurement": "MIC", "setting": "[5]; E. coli K12", "result": 0.8, "unit": "µM"}, {"measurement": "t1/2 in human serum", "setting": "[6]", "result": "~60", "unit": "h"}, {"measurement": "half-life at 0.291 mg/mL", "setting": "[6]; human, human serum, t1/2 in human serum", "result": "60 ± 6", "unit": "h"}]}]}
